# Data published in US20080176862A1, “New Compounds 617” (ASTRAZENECA AB, priority 2006, published 2008).
# Where a name gives a salt, the structure may show the parent alone.
# Biological target: T1, human β-Secretase (soluble part, AA1-AA460; sBACE-Fc) (Homo sapiens, UniProt P56817)
# T1 construct: The soluble part of the human β-Secretase (AA1-AA460) was cloned into the ASP2-Fc10-1-IRES-GFP-neoK mammalian expression vector; made in house
# Experiment: TR-FRET assay
# Type: biochemical
# Details: substrate (Europium)CEVNLDAEFK(Qsy7) 100 nM, pH 4.5, 15 min at RT
# Method: The enzyme used in the IGEN Cleavage-, Fluorescent-, TR-FRET- and BiaCore assays is described as follows:
# The soluble part of the human β-Secretase (AA1-AA460) was cloned into the ASP2-Fc10-1-IRES-GFP-neoK mammalian expression vector. The gene was fused to the Fc domain of IgG1 (affinity tag) and stably cloned into HEK 293 cells. Purified sBACE-Fc is stored in Tris buffer, pH 9.2 and has a purity of 95%.
# Enzyme was diluted to 6 μg/mL and the substrate (Europium)[…](Qsy7) to 200 nM in reaction buffer (NaAcetate, chaps, triton x-100, EDTA pH 4.5). Compounds were diluted to the desired concentration in dimethyl sulfoxide (final dimethyl sulfoxide concentration in assay is 5%). […] Enzyme (9 μL) and 1 μL of compound in dimethyl sulfoxide was added to the plate, mixed and pre-incubated for 10 min. Substrate (10 μL) was added and the reaction proceeded in the dark for 15 min at RT. The reaction was stopped with the addition of 7 μL NaAcetate, pH 9. The fluorescence of the product was measured on a Victor II plate reader with an excitation wavelength of 340 nm and an emission wavelength of 615 nm. […] The dimethyl sulfoxide control defined the 100% activity level and 0% activity was defined by exclusion of the enzyme (using reaction buffer instead).
# T1 sequence (P56817 22-460): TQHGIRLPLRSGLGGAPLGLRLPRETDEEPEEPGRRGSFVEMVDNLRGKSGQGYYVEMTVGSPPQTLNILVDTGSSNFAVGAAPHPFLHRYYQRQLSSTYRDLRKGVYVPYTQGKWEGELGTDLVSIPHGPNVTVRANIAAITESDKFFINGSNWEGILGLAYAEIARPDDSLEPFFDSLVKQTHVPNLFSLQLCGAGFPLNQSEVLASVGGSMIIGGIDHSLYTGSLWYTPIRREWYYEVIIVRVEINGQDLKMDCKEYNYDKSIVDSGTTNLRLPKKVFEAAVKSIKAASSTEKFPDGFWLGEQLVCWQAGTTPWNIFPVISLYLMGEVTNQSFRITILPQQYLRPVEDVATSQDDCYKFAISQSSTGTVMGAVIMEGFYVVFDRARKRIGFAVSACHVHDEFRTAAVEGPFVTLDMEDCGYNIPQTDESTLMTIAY
row,Structure (SMILES),IC50 (nM) in TR-FRET assay
1,"COc1cc(OS(C)(=O)=O)cc(-c2cc(C3(c4ccccc4)N=C(N)N(C)C3=O)ccc2F)c1 (centres unmarked) [Example 84, 5′-(2-Amino-1-methyl-5-oxo-4-phenyl-4,5-dihydro-1H-imidazol-4-yl)-2′-fluoro-5-methoxybiphenyl-3-yl methanesulfonate]",inactive

# Same assay, conditions: substrate (Europium)CEVNLDAEFK(Qsy7) 100 nM, pH 4.5, 15 min at RT; read-out: IC50 (nM) in TR-FRET assay
row,Structure (SMILES),IC50 [nM]
1,"CN1C(=O)C(c2ccc(OS(=O)(=O)c3c(F)cccc3F)cc2)(c2ccc(F)c(-c3cncnc3)c2)N=C1N (centres unmarked) [Example 278, 4-[2-Amino-4-(4-fluoro-3-pyrimidin-5-ylphenyl)-1-methyl-5-oxo-4,5-dihydro-1H-imidazol-4-yl]phenyl 2,6-difluorobenzenesulfonate]",65
2,"COc1ccc(OC)c(S(=O)(=O)Oc2ccc(C3(c4ccc(F)c(-c5cccnc5)c4)N=C(N)N(C)C3=O)cc2)c1 (centres unmarked) [Example 282, 4-[2-Amino-4-(4-fluoro-3-pyridin-3-ylphenyl)-1-methyl-5-oxo-4,5-dihydro-1H-imidazol-4-yl]phenyl 2,5-dimethoxybenzenesulfonate0.25 acetate]",59
3,"Cc1nn(C)c(Cl)c1S(=O)(=O)Oc1ccc(C2(c3ccc(F)c(-c4cccnc4)c3)N=C(N)N(C)C2=O)cc1 (centres unmarked) [Example 285, 4-[2-Amino-4-(4-fluoro-3-pyridin-3-ylphenyl)-1-methyl-5-oxo-4,5-dihydro-1H-imidazol-4-yl]phenyl 5-chloro-1,3-dimethyl-1H-pyrazole-4-sulfonate 0.25 acetate]",122
4,"COc1cc(OS(C)(=O)=O)cc(-c2cc(C3(c4ccccc4)N=C(N)N(C)C3=O)ccc2F)c1 (centres unmarked) [Example 84, 5′-(2-Amino-1-methyl-5-oxo-4-phenyl-4,5-dihydro-1H-imidazol-4-yl)-2′-fluoro-5-methoxybiphenyl-3-yl methanesulfonate]",159
5,"CN1C(=O)C(c2ccc(OC(F)F)cc2)(c2ccc(F)c(-c3cncc(OS(C)(=O)=O)c3)c2)N=C1N (centres unmarked) [Example 73, 5-(5-{2-Amino-4-[4-(difluoromethoxy)phenyl]-1-methyl-5-oxo-4,5-dihydro-1H-imidazol-4-yl}-2-fluorophenyl)pyridin-3-yl methanesulfonate hydrochloride]",54
6,"CCCN1C(=O)C(c2ccc(OS(C)(=O)=O)cc2)(c2ccc(F)c(-c3cncnc3)c2)N=C1N (centres unmarked) [Example 165, 4-[2-Amino-4-(4-fluoro-3-pyrimidin-5-ylphenyl)-1-propyl-5-oxo-4,5-dihydro-1H-imidazol-4-yl]phenyl methanesulfonate 0.5 acetate]",589
7,"CN1C(=O)C(c2cccc(OS(=O)(=O)c3ccc(-n4cccn4)cc3)c2)(c2ccc(F)c(Br)c2)N=C1N (centres unmarked) [Example 227, 3-[2-Amino-4-(3-bromo-4-fluorophenyl)-1-methyl-5-oxo-4,5-dihydro-1H-imidazol-4-yl]phenyl 4-(1H-pyrazol-1-yl)benzenesulfonate]",1460
8,"CC(C)S(=O)(=O)Oc1cccc(C2(c3ccc(F)c(-c4cc(Cl)cnc4F)c3)N=C(N)N(C)C2=O)c1 (centres unmarked) [Example 103, 3-{2-Amino-4-[3-(5-chloro-2-fluoropyridin-3-yl)-4-fluorophenyl]-1-methyl-5-oxo-4,5-dihydro-1H-imidazol-4-yl}phenyl propane-2-sulfonate]",227
9,"COc1ccc(F)c(-c2cncc(C3(c4ccc(OS(C)(=O)=O)cc4)N=C(N)N(C)C3=O)c2)c1 (centres unmarked) [Example 21, 4-{2-Amino-4-[5-(2-fluoro-5-methoxyphenyl)pyridin-3-yl]-1-methyl-5-oxo-4,5-dihydro-1H-imidazol-4-yl}phenyl methanesulfonate 0.5 acetate]",1910
10,"CN1C(=O)C(c2ccc(OS(C)(=O)=O)cc2)(c2ccc(F)c(CCC3CC3)c2)N=C1N (centres unmarked) [Example 79, 4-{2-Amino-4-[3-(2-cyclopropylethyl)-4-fluorophenyl]-1-methyl-5-oxo-4,5-dihydro-1H-imidazol-4-yl}phenyl methanesulfonate]",552
11,"CN1C(=O)C(c2ccc(OS(C)(=O)=O)cc2)(c2ccnc(-c3cccc(C#N)c3)c2)N=C1N (centres unmarked) [Example 34, 4-{2-Amino-4-[2-(3-cyanophenyl)pyridin-4-yl]-1-methyl-5-oxo-4,5-dihydro-1H-imidazol-4-yl}phenyl methanesulfonate 0.25 acetate]",924
12,"COc1cc(C#N)cc(-c2cc(C3(c4ccc(OS(C)(=O)=O)cc4)N=C(N)N(C)C3=O)ccc2F)c1 (centres unmarked) [Example 71, 4-[2-Amino-4-(3′-cyano-6-fluoro-5′-methoxybiphenyl-3-yl)-1-methyl-5-oxo-4,5-dihydro-1H-imidazol-4-yl]phenyl methanesulfonate hydrochloride]",41
13,"CCc1ccc(C2(c3ccc(F)c(-c4cncnc4)c3)N=C(N)N(C)C2=O)cc1OS(C)(=O)=O (centres unmarked) [Example 253, 5-[2-Amino-4-(4-fluoro-3-pyrimidin-5-ylphenyl)-1-methyl-5-oxo-4,5-dihydro-1H-imidazol-4-yl]-2-ethylphenyl methanesulfonate 0.5 acetate]",96
14,"CN1C(=O)C(c2cccc(OS(=O)(=O)c3ccc4c(c3)oc(=O)n4C)c2)(c2ccc(F)c(Br)c2)N=C1N (centres unmarked) [Example 229, 3-[2-Amino-4-(3-bromo-4-fluorophenyl)-1-methyl-5-oxo-4,5-dihydro-1H-imidazol-4-yl]phenyl 3-methyl-2-oxo-2,3-dihydro-1,3-benzoxazole-6-sulfonate]",299
15,"CN1C(=O)C(c2ccc(OS(=O)(=O)C(F)(F)F)cc2)(c2ccc(F)c(-c3cncs3)c2)N=C1N (centres unmarked) [Example 187, 4-{2-Amino-4-[4-fluoro-3-(1,3-thiazol-5-yl)phenyl]-1-methyl-5-oxo-4,5-dihydro-1H-imidazol-4-yl}phenyl trifluoromethanesulfonate hydrochloride]",459
16,"CCCS(=O)(=O)Oc1cccc(C2(c3ccc(F)c(-c4cncc(OC)c4)c3)N=C(N)N(C)C2=O)c1 (centres unmarked) [Example 130, 3-{2-Amino-4-[4-fluoro-3-(5-methoxypyridin-3-yl)phenyl]-1-methyl-5-oxo-4,5-dihydro-1H-imidazol-4-yl}phenyl propane-1-sulfonate hydrochloride]",59
17,"COc1ccc(C2(c3cccc(-c4cc(Cl)cc(OS(C)(=O)=O)c4)c3)N=C(N)N(C)C2=O)cc1C(F)(F)F (centres unmarked) [Example 61, 3′-{2-Amino-4-[4-methoxy-3-(trifluoromethyl)phenyl]-1-methyl-5-oxo-4,5-dihydro-1H-imidazol-4-yl}-5-chlorobiphenyl-3-ylmethanesulfonate]",37
18,"COc1cc(OS(C)(=O)=O)cc(-c2cc(C3(c4ccnc(C)c4)N=C(N)N(C)C3=O)ccc2F)c1 (centres unmarked) [Example 211, 5′-[2-Amino-1-methyl-4-(2-methylpyridin-4-yl)-5-oxo-4,5-dihydro-1H-imidazol-4-yl]-2′-fluoro-5-methoxybiphenyl-3-yl methanesulfonate hydrocloride]",104
19,"COc1ccnc(-c2cc(C3(c4ccc(OS(C)(=O)=O)cc4)N=C(N)N(C)C3=O)ccc2F)c1 (centres unmarked) [Example 301, 4-{2-Amino-4-[4-fluoro-3-(4-methoxypyridin-2-yl)phenyl]-1-methyl-5-oxo-4,5-dihydro-1H-imidazol-4-yl}phenyl methanesulfonate 0.75 acetate]",53
20,"CC(C)S(=O)(=O)Oc1cccc(C2(c3ccc(F)c(-c4cccnc4)c3)N=C(N)N(C)C2=O)c1 (centres unmarked) [Example 105, 3-[2-Amino-4-(4-fluoro-3-pyridin-3-ylphenyl)-1-methyl-5-oxo-4,5-dihydro-1H-imidazol-4-yl]phenylpropane-2-sulfonate]",343
21,"CCCS(=O)(=O)Oc1ccc(C2(c3ccc(F)c(-c4cncc(OC)c4)c3)N=C(N)N(C)C2=O)cc1 (centres unmarked) [Example 129, 4-{2-Amino-4-[4-fluoro-3-(5-methoxypyridin-3-yl)phenyl]-1-methyl-5-oxo-4,5-dihydro-1H-imidazol-4-yl}phenyl propane-1-sulfonate hydrochloride]",35
22,"CN1C(=O)C(c2ccc(OS(=O)(=O)C(F)(F)F)cc2)(c2ccc(F)c(-c3cncc(Cl)c3)c2)N=C1N (centres unmarked) [Example 140, 4-{2-Amino-4-[3-(5-chloropyridin-3-yl)-4-fluorophenyl]-1-methyl-5-oxo-4,5-dihydro-1H-imidazol-4-yl}phenyl trifluoromethanesulfonate 0.75 acetate]",116
23,"COc1cccc(-c2ccnc(C3(c4ccc(OS(=O)(=O)C(F)(F)F)cc4)N=C(N)N(C)C3=O)c2)c1 (centres unmarked) [Example 298, 4-{2-Amino-4-[4-(3-methoxyphenyl)pyridin-2-yl]-1-methyl-5-oxo-4,5-dihydro-1H-imidazol-4-yl}phenyl trifluoromethanesulfonate 0.5 acetate]",874
24,"Cc1cc(C2(c3ccc(F)c(-c4cc(Cl)cc(OS(C)(=O)=O)c4)c3)N=C(N)N(C)C2=O)ccn1 (centres unmarked) [Example 307, 5′-(2-Amino-1-methyl-4-(2-methylpyridin-4-yl)-5-oxo-4,5-dihydro-1H-imidazol-4-yl)-5-chloro-2′-fluorobiphenyl-3-yl methanesulfonate hydrochloride]",104
25,"CN1C(=O)C(c2ccc(OS(=O)(=O)C(F)(F)F)cc2)(c2ccc(F)c(-c3cccnc3F)c2)N=C1N (centres unmarked) [Example 142, 4-{2-Amino-4-[4-fluoro-3-(2-fluoropyridin-3-yl)phenyl]-1-methyl-5-oxo-4,5-dihydro-1H-imidazol-4-yl}phenyl trifluoromethanesulfonate 0.75 acetate]",140
